In publication doi:10.1101/2025.03.20.644389, “In vivo validation of the palmitoylation cycle as a therapeutic target in NRAS-mutant cancer” (bioRxiv, 2025):

Molecular target: T1, ABHD17B (Homo sapiens, UniProt Q5VST6)
T1 construct: hABHD17B recombinantly expressed in HEK293T cells (membrane proteome)
T1 sequence (Q5VST6 1-288): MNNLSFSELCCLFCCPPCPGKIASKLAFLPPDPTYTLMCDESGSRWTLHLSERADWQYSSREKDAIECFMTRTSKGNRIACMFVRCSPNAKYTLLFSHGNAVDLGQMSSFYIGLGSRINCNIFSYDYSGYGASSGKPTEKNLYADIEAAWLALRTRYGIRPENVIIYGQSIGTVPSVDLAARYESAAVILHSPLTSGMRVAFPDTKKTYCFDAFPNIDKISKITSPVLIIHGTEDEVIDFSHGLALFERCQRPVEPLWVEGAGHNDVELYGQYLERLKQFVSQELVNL
Experiment: competitive gel-based ABPP with FP-Rh in transfected HEK293T membrane proteome
Assay type: biochemical

ABD778
IC50: 76 nM
